pIC50: −log10 of the molar value. Values joined by “and” are separate entries in the source; they are usually repeats but may differ in a detail not shown here. Equal values may be shown once.
Tested on: 941728-121-R-J1-PDC complex spheroid viability
Assay: Anticancer human tumor 941728-121-R-J1-PDC patient-derived lung adenocarcinoma cell line growth inhibition [RAS]
Details: for viability, T/C: stronger effect = lower value
Source text: RAS pathway inhibitors in Combinations in Complex Spheroids
A high-throughput screen of multi-cell type tumor spheroids was designed to identify active combinations of RAS pathway inhibitors and targeted small molecules. Complex spheroids include a stromal component modeled by human endothelial cells (HUVEC) and fibroblasts modeled by human mesenchymal stem cells (MSCs). The concentration ranges selected for each drug and investigational agent were based upon clinically achievable concentrations if the clinical Cmax of the agent was known.
Compounds. The drugs and investigational agents: abemaciclib (NSC768073), cobimetinib (NSC768068), divarasib (GDC6063, NSC841802), docetaxel (NSC628503), GDC-1971 (RLY-1971, NSC841576), gemcitabine (NSC613327), inavolisib (NSC800729), ipatasertib (NSC767898), KB-0742 (NSC834161), MRTX-1133 (NSC836407), osimertinib (NSC779217), RMC-4630 (NSC839698), RMC-6236 (NSC851965), RMC-6291 (NSC852671), Ro-3306 (NSC812927), sapanisertib (NSC764658), SN-38 (NSC673596), staurosporine (NSC755774), SY5609 (NSC837396), and tovorafenib (DAY101, NSC766906), were obtained from the National Cancer Institute (NCI) Developmental Therapeutics Program Chemical Repository. The FDA-approved anticancer drug set is available from the NCI Developmental Therapeutics Program. […] The stock solutions were prepared in dimethyl sulfoxide (DMSO, Sigma-Aldrich, St. Louis, MO, cat. D2650) at 800-fold the tested concentration and stored at -70 degrees C prior to their use. All drugs and investigational agents were tested over a range starting from a high concentration at or near the clinical Cmax and decreasing in half-log increments. If the clinical Cmax for an agent had not been determined, the highest concentration tested was 10 microM.
Cell Culture. All cells were maintained in an incubator at 37 degrees C and 5% CO2 with 95% humidity. The PDC lines were cultured according to standard operating procedures established by the NCI PDMR. All PDCs were thawed and cultured in Matrigel-coated flasks prepared with a working solution of 1X Ham's F-12 nutrient mix, without supplementation (Invitrogen, Waltham, MA, cat. 11765054), 100 U/mL penicillin-streptomycin (Invitrogen, cat. 15140122), and 2.5% Matrigel (Corning Inc., Corning, NY, cat. 354248) for the first three passages. The 362531-283-R-J2-PDC and 782815-120-R-J1-PDC lines were cultured in 6C/Colon 1B media, which includes advanced DMEM/F-12 (Thermo Fisher Scientific, cat. 12634028), 10 mM HEPES (Thermo Fisher Scientific, cat. 15630080), 1X GlutaMAX supplement (Thermo Fisher Scientific, cat. 35050061), 0.1 mg/mL primocin (InvivoGen, San Diego, CA, cat. ant-pm-2), 10% defined fetal bovine serum, heat inactivated (HyClone Laboratories Inc., Logan, UT, cat. SH30070.03HI), 50% L-WRN conditioned media (ATCC, cat. CRL-3276), 1.25 mM N-Acetyl-L-cysteine (Sigma-Aldrich, cat. A9165), 10 mM nicotinamide (Sigma-Aldrich, cat. N0636), 1X B-27 supplement (Thermo Fisher Scientific, cat. 17504044), 1X N-2 supplement (Thermo Fisher Scientific, cat. 17502048), 50 ng/mL human EGF (Thermo Fisher Scientific, cat. PHG0311), and 10 microM Y-27632 dihydrochloride (Tocris Bioscience, cat. 1254). The K12877-001-R-J1-PDC line was cultured in 6I media, which includes all 6C/Colon 1B media plus 10 ng/mL human FGF-10 (PeproTech, cat. 100-26), 1 ng/mL human FGF-2 (PeproTech, cat. 100-18B), 1 µM prostaglandin E2 (Tocris Bioscience, cat. 2296), […] hydrocortisone (Sigma-Aldrich, cat. H4001), and […] bovine insulin (Sigma-Aldrich, cat. I6634). The K86415-001-R-J1-PDC line was cultured in 6D media, which includes all 6C/Colon 1B media components minus the L-WRN conditioned media. The 485176-168-R4-J1-PDC was cultured in PANC media, which includes all 6C/Colon 1B media plus 100 ng/mL human FGF-10 (PeproTech, cat. 100-26), 500 nM SB-431542 (Selleckchem, cat. S1067), and 10 nM gastrin (Tocris Bioscience, cat. 3006). […]
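Note: spheroids exposed to compounds for 7 days before readout.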
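Throughout, for viability, T/C: 100% = DMSO vehicle control viability.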

Row | Structure (SMILES) | viability, T/C (compound 0.0316 µM) | viability, T/C (compound 0.1 µM) | viability, T/C (compound 0.316 µM) | viability, T/C (compound 1 µM) | viability, T/C (compound 3.16 µM) | viability, T/C (compound 10 µM) | IC50 (compound alone, run of 07/15/2024) | pIC50 (curve of compound) | IC50 (curve of compound)
1 | C#Cc1c(F)ccc2cc(O)cc(-c3ncc4c(N5CC6CCC(C5)N6)nc(OCC56CCCN5CC(F)C6)nc4c3F)c12 (stereo unspecified) | 87.4% [middle of 8 runs] | 82.9% [middle of 8 runs] | 61.2% [middle of 8 runs] | 41.3% [middle of 8 runs] | 32.1% [middle of 8 runs] | 23.3% [middle of 8 runs] | 603 nM [middle of 8 runs] |  | 
2 | CC(=O)OC12COC1CC(O)C1(C)C(=O)C(O)C3=C(C)C(OC(=O)C(O)C(NC(=O)OC(C)(C)C)c4ccccc4)CC(O)(C(OC(=O)c4ccccc4)C21)C3(C)C (stereo unspecified) | 51.2% [middle of 4 runs] | 54.9% [middle of 4 runs] | 48.2% [middle of 4 runs] | 49% [middle of 4 runs] | 47.4% [middle of 4 runs] | 56.4% [middle of 4 runs] |  |  | 
3 | CC(C)NCC(C(=O)N1CCN(c2ncnc3c2C(C)CC3O)CC1)c1ccc(Cl)cc1 (stereo unspecified) | 93.8% [middle of 4 runs] | 90.7% [middle of 4 runs] | 74.2% [middle of 4 runs] |  | 54.6% [middle of 4 runs] | 42.7% [middle of 4 runs] |  | 6.07 and 5.26 and 5.58 | 
4 | CC(Nc1ccc2c(c1)OCCn1cc(N3C(=O)OCC3C(F)F)nc1-2)C(N)=O (stereo unspecified) | 81% [middle of 4 runs] | 53.6% [middle of 4 runs] | 40.8% [middle of 4 runs] | 42.5% [middle of 4 runs] | 37.6% [middle of 4 runs] | 34.7% [middle of 4 runs] |  |  | 144 nM [middle of 4 runs]
5 | CC1(O)CCCC1n1c(=O)c(C(F)F)cc2cnc(NC3CCN(S(C)(=O)=O)CC3)nc21 (stereo unspecified) | 87% [middle of 4 runs] | 84.6% [middle of 4 runs] | 75.3% [middle of 4 runs] | 83.9% [middle of 4 runs] |  | 51.8% [middle of 4 runs] |  | 5.23 and < 5.00 and 5.13 | 
6 | CCC(CC)c1cc(NC2CCC(N)C2)n2nccc2n1 (stereo unspecified) |  | 105% [middle of 4 runs] | 95.6% [middle of 4 runs] |  | 30.5% [middle of 4 runs] | 44% [middle of 4 runs] |  | 5.69 and 5.60 | 
7 | C[C@@H](NC(=O)c1ncnc(N)c1Cl)c1ncc(C(=O)Nc2cc(C(F)(F)F)c(Cl)cn2)s1 | 114% [middle of 4 runs] | 112% and 129% and 115% (2×) | 120% [middle of 4 runs] | 112% [middle of 4 runs] | 83.2% [middle of 4 runs] | 45.7% [middle of 4 runs] |  |  | 8.88 µM [middle of 4 runs]
8 | Cc1nc(N2CCC3(CC2)COC(C)C3N)c(CO)nc1Sc1ccnc(N)c1Cl (stereo unspecified) | 65.7% [middle of 4 runs] | 55.1% [middle of 4 runs] | 43.4% [middle of 4 runs] | 41.8% [middle of 4 runs] | 42.2% [middle of 4 runs] | 40.1% [middle of 4 runs] |  |  | 
9 | NC1c2ccccc2OC12CCN(c1cnc3c(N4CCCc5ncccc54)n[nH]c3n1)CC2 (stereo unspecified) | 48.2% [middle of 4 runs] | 44.8% [middle of 4 runs] | 36% [middle of 4 runs] | 47.1% [middle of 4 runs] | 41.8% [middle of 4 runs] | 49% [middle of 4 runs] |  | > 7.50 | 
10 | Nc1ccn(C2OC(CO)C(O)C2(F)F)c(=O)n1 (stereo unspecified) | 56.4% [middle of 4 runs] | 57.3% [middle of 4 runs] | 52.7% [middle of 4 runs] | 43% [middle of 4 runs] |  |  |  |  | 

From PubChem BioAssay AID2060896 (Molecular Pharmacology Branch, DTP, NCI, 2025)
